Results as given in patent US7973062B2, “Androgen receptor-ablative agents” (The Ohio State University Research Foundation, priority 2008, dated 2011).
“Also recorded” adds a separate entry of the source. Read-outs that look alike come from different tables or passages of the source.

Tests used:
Assay type in all cases: cell-based
PPARγ = biological target: T1, PPARγ (Homo sapiens, UniProt P37231); assay: PPRE-luciferase reporter assay (PPRE-x3-TK-Luc) in PC-3 cells; settings: PC-3 cells transfected with PPRE-x3-TK-Luc
T1 construct: In PC-3 cells transfected with a reporter construct (PPRE-x3-TK-Luc); endogenous in cells; host or cells: PC-3
T1 sequence (P37231 1-505): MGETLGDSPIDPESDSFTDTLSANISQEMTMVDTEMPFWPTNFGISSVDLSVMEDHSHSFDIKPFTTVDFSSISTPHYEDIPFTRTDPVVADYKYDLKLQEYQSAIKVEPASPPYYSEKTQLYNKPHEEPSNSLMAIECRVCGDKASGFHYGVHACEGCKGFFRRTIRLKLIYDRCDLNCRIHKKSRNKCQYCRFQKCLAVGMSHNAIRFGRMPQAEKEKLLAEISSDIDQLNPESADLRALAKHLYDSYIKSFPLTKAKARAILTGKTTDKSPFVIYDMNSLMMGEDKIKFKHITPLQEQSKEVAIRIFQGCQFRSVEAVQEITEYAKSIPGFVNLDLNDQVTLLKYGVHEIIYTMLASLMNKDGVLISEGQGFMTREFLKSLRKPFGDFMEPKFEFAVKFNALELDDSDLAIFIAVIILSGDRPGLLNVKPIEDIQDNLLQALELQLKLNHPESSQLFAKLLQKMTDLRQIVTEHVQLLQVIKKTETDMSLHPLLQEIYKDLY
From the text: Transfection and Luciferase assay. The 3.6-kilobase AR promoter-linked reporter plasmid p-3600ARCAT was kindly provided by Dr. Chawnshang Chang (University of Rochester Medical Center, Rochester, N.Y.). The AR promoter gene (−3600 to +550) encompassing the transcription start site was isolated by using PCR to generate hAR-luc with suitable primers. The fragment was subcloned into the pGL3 luciferase reporter vector (Promega, Madison, Wis.) at KpnI and BglII in the multiple cloning site. The PPRE-x3-TK-Luc reporter vector contains three copies of the PPAR-response element (PPRE) upstream of the thymidine kinase promoter-luciferase fusion gene and was kindly provided by Dr. Bruce Spiegelman (Harvard University, Cambridge, Mass.). The pCMVSp1 plasmid was purchased from Origene Technologies, Inc. (Rockville, Md.). LNCaP or PC3 cells were transfected with 5 μg of individual plasmids in an Amaxa Nucleofector using a cell line-specific nucleofector kit according to the manufacturer's protocol (Amaxa Biosystems, Cologne, Germany), and then seeded in 6-well plates at 5×10^5 cells per well for 48 h. […] For each transfection, herpes simplex virus thymidine kinase promoter-driven Renilla reniformis luciferase was used as an internal control for normalization.
Fifty-μl aliquots of the lysates were added to 96-well plates, and luciferase activity was monitored after adding 100 μl of luciferase substrate (Promega) each well by using a MicroLumatPlus LB96V luminometer (Berthold Technologies, Oak Ridge, Tenn.) with the WinGlow software package. All transfection experiments were carried out in six replicate.

[1] = test system: PC-3 androgen-nonresponsive prostate cancer cells; assay: MTT cell viability assay, PC-3 cells; settings: Homo sapiens, 5% FBS, read-out: IC50 for suppressing cell viability
Method: Cell Counting and Cell Viability Assay. LNCaP or PC-3 cells were placed in six-well plates (2.5×10^5 cells/well) in 10% FBS-supplemented RPMI 1640 for 24 h, and treated with various concentrations of compound 12 for additional 24, 48 and 72 h. Cells were then trypsinized and counted by using a Coulter counter (Model Z1 D/T, Beckman Coulter, Fullerton, Calif.). Cell viability was assessed by using the 3-(4,5-dimethylthiazol-2-yl)-2,5-diphenyl-2H-tetrazolium bromide (MTT) assay in six replicates in 96-well plates. LNCaP or PC-3 cells were seeded at 6000 cells per well in 10% FBS-supplemented RPMI 1640 for 24 h, followed by treatments with various compounds in 5% FBS-supplemented RPMI 1640 at the indicated concentrations. Controls received DMSO at a concentration equal to that in drug-treated cells. After the end of incubation, MTT (0.5 mg/ml) in 10% FBS-supplemented RPMI 1640 was added to each well, and cells were incubated at 37° C. for 2 hours. Medium was removed and the reduced MTT dye was solubilized in DMSO (200 μl/well). Absorbance was determined at 570 nm by a 96-well plate reader.

[2] = test system: androgen receptor (AR) expression; assay: Western blot analysis of AR protein expression in LNCaP cells
Method: RT-PCR and Immunoblotting. LNCaP cells were cultured in T25 flasks at an initial density of 1×10^6 cells/flask. After exposure to various compounds at the indicated conditions, cells were subject to total RNA isolation by using an RNeasy mini-kit (QIAGEN, Valencia, Calif.). RNA concentrations were determined by measuring absorption at 260 nm in a spectrophotometer. Aliquots of 6 μg of total RNA from each sample were reverse-transcribed to cDNA using an Omniscript RT Kit (QIAGEN) according to the manufacturer's instructions, using suitable primers.
For immunoblotting, protein extracts were prepared by M-PER Mammalian Protein Extraction Reagent (Pierce, Rockford, Ill.) with freshly added 1% phosphatase and protease inhibitor cocktails (Calbiochem) followed by centrifugation at 13,000×g for 10 min. Supernatant was collected and protein concentration was determined by protein assay reagent (Bio-Rad, CA). Protein extracts were then suspended in 2×SDS sample buffer, and subject to 10% SDS-polyacrylamide gels. After electrophoresis, proteins were transferred to nitrocellulose membranes using a semidry transfer cell. The transblotted membrane was washed twice with Tris-buffered saline containing 0.1% Tween 20 (TBST). After blocking with TBST containing 5% nonfat milk for 1 h, the membrane was incubated with mouse monoclonal anti-AR (Santa Cruz) or anti-β-actin (MP Biomedicals) antibodies (diluted 1:1000) in 1% TBST nonfat milk at 4° C. overnight. After incubation with the primary antibody, the membrane was washed three times with TBST for a total of 30 min, followed by incubation with horseradish peroxidase conjugated goat anti-mouse IgG (diluted 1:2500) for 1 h at room temperature. After three thorough washes with TBST for a total of 30 min, the immunoblots were visualized by enhanced chemiluminescence.

androgen receptor (AR) = assay: Immunocytochemical analysis of AR in LNCaP cells; settings: 5 μM, 48 h
Method: Immunocytochemical Analysis. Cells were seeded onto coverslips in six-well plates (2.5×10^5 cells/well) for 24 h followed by exposure to 5 μM compound 12 for an additional 48 h. After extensive washing with PBS, cells were fixed and permeabilized with PBS containing 0.1% Triton X-100 for 1 h, and then incubated with anti-AR (1:100 dilution) in PBS containing 0.1% Triton X-100, 0.2% bovine serum albumin, 0.5 mM PMSF, and 1 mM DTT at room temperature for 12 h followed by Alexa Fluor 488-conjugated goat anti-mouse IgG (1:100; Molecular Probes) for 2 h. Nuclear counterstaining was performed by mounting with 4,6-diamidino-2-phenylindole (DAPI)-containing medium. Images of immunocytochemically labeled samples were observed using a Nikon microscope (Eclipse TE300).

For CC1(CN2C(=O)S/C(=C\c3ccc(O)c(C(F)(F)F)c3)C2=O)CCCCC1 [Compound 12, 5-(4-Hydroxy-3-trifluoromethyl-benzylidene)-3-(1-methyl-cyclohexylmethyl)-thiazolidine-2,4-dione], the “PPARγ activation (in words)” value (PPARγ) was “lacked appreciable activity”, the IC50 ([1]; 48 h) was 15 µM and the IC50 ([1]; 72 h) was 12 µM. For the same compound, the “AR expression level after compound washed out of the medium” value ([2]; 5 μM, washout then drug-free medium (FIG. 6C)) was “rapidly restored”, the “suppression of AR protein expression (in words)” value ([2]; 10% FBS, 72 h, Western blot) was “completely inhibited AR expression in LNCaP cells at low μM concentrations; also recorded: an-order-of-magnitude higher potency than ciglitazone” and the IC50 ([2]; 72-h exposure, Western blot (FIG. 4C), read-out: IC50 for suppressing AR expression) was about 2 µM. For the same compound, the “AR levels in the nucleus” value (androgen receptor (AR)) was “substantial decrease in AR levels in the nucleus”.
